Experimental findings from ChEMBL document CHEMBL3808350, “Stacking with No Planarity?” (ACS Med Chem Lett, 2016) are described below.

In one test the target is Aminopeptidase B (Homo sapiens, UniProt Q9H4A4). The test is described as follows: Inhibition of aminopeptidase B (unknown origin).
Test [1] concerns the target T1, Bifunctional epoxide hydrolase 2 (Homo sapiens, UniProt P34913).
T1 sequence (P34913 whole entry): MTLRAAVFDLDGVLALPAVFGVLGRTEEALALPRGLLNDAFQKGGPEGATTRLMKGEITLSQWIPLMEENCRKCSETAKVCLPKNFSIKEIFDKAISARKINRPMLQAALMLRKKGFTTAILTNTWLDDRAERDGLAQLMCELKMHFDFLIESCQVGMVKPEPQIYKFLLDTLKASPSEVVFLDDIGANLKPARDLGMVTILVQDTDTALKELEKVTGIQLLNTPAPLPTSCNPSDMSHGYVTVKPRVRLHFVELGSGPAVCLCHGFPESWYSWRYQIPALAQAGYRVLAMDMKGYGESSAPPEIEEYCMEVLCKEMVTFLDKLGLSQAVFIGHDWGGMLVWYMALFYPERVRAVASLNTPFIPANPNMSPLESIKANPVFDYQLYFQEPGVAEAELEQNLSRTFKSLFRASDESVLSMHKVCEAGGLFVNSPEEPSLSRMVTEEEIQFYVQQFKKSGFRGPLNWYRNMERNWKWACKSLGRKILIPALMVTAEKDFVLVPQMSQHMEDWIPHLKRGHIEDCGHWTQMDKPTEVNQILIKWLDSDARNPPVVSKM
As to the kind of experiment: Inhibition of sEH (unknown origin).

Test [2] can be described thus: Displacement of (Z)-5-(4-(3-carboxy-3-hydroxyacryloyl)-4-(4-chlorobenzyl)piperidine-1-carbonyl)-2-(6-hydroxy-3-oxo-3H-xanthen-9-yl)benzoic acid from Influenza A virus (A/Viet Nam/1203/2004(H5N1)) recombinant C-terminal 10X-His-tagged polymerase acidic protein (1 to 209 residues) expressed in Escherichia coli BL21 (DE3) after 30 mins by fluorescence polarization assay. For orientation: Fluorescence polarisation rises when a labelled molecule tumbles more slowly, as on binding a larger partner.

Structures are written as SMILES.

Sequence of Aminopeptidase B (Q9H4A4 whole entry): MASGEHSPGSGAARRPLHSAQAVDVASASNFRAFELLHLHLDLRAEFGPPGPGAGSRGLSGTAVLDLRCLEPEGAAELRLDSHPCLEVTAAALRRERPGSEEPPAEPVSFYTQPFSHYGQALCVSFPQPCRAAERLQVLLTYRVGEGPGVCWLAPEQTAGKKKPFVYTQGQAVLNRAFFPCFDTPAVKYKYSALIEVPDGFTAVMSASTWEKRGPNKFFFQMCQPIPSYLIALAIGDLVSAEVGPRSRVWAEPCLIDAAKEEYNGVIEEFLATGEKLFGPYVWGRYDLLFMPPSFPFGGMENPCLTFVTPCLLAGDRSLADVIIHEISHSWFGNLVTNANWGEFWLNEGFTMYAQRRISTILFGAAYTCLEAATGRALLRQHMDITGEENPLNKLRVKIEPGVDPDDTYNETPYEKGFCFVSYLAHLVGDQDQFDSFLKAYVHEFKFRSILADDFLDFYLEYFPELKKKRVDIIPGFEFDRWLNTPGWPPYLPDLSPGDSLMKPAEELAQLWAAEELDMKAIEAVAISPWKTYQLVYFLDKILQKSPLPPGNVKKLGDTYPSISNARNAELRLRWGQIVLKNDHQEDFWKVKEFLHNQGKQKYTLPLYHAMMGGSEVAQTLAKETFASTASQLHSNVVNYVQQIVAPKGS

As for `CC(C)C[C@H](NC(=O)[C@@H](O)[C@H](N)CC1CCCCC1)C(=O)O`, the IC50 against Aminopeptidase B was determined as 3500 nM.
In test [1], `O=C(Nc1ccccc1)NC1CCCCC1` gave an IC50 of 760 nM.
Regarding `O=C(O)/C(O)=C/C(O)C1(Cc2ccc(Cl)cc2)CCN(Cc2ccccc2)CC1` (stereo not given), in test [2], the Ki came to 90 nM.
Regarding `O=C(O)/C(O)=C/C(O)C1(Cc2ccc(Cl)cc2)CCN(CC2CCCCC2)CC1` (stereo not given), in test [2], the Ki was found to be 84 nM.
Take `CC(C)C[C@H](NC(=O)[C@@H](O)[C@H](N)Cc1ccccc1)C(=O)O` [UBENIMEX]: it took 160000 nM to reach half-maximal inhibition against Aminopeptidase B (IC50).

The term IC50 denotes the concentration that inhibits the measured activity by half. The low end stands for inhibition by little substance, the high end for a need for much substance. A word on the Ki: it is a measure of affinity in units of concentration, obtained from inhibition or displacement.
